Measured values as given in PubChem BioAssay (NCI).
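Tested at 5 concentrations; 48 h exposure; 96-well plates; endpoints linearly interpolated, else capped at highest concentration. Here, GI50 denotes the concentration required for 50% inhibition of growth. The concentration for full growth arrest is given as TGI.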

Columns and labels:
Experiment in all cases: DTP human tumour cell line panel, 48 h
SF-268 CNS = system: SF-268 CNS
KM12 colon = system: KM12 colon
UO-31 renal = system: UO-31 renal
T-47D breast = system: T-47D breast
K-562 leukemia = system: K-562 leukemia
MCF7 breast = system: MCF7 breast
HT29 colon = system: HT29 colon
EKVX NSCLC = system: EKVX NSCLC
CCRF-CEM leukemia = system: CCRF-CEM leukemia
HCC-2998 colon = system: HCC-2998 colon
IGROV1 ovarian = system: IGROV1 ovarian
NCI/ADR-RES ovarian = system: NCI/ADR-RES ovarian
UACC-62 melanoma = system: UACC-62 melanoma
NCI-H522 lung = system: NCI-H522 lung
U251 CNS = system: U251 CNS
MALME-3M melanoma = system: MALME-3M melanoma
SR leukemia = system: SR leukemia
SK-MEL-2 melanoma = system: SK-MEL-2 melanoma
PC-3 prostate = system: PC-3 prostate
786-0 renal = system: 786-0 renal
MOLT-4 leukemia = system: MOLT-4 leukemia
HL-60(TB) leukemia = system: HL-60(TB) leukemia
MDA-MB-231 breast = system: MDA-MB-231 breast
SF-539 CNS = system: SF-539 CNS
DU-145 prostate = system: DU-145 prostate
RPMI-8226 leukemia = system: RPMI-8226 leukemia
NCI-H460 lung = system: NCI-H460 lung
SNB-75 CNS = system: SNB-75 CNS
ACHN renal = system: ACHN renal
BT-549 breast = system: BT-549 breast
HS 578T breast = system: HS 578T breast
OVCAR-5 ovarian = system: OVCAR-5 ovarian
A549 NSCLC = system: A549 NSCLC
OVCAR-4 ovarian = system: OVCAR-4 ovarian
M14 melanoma = system: M14 melanoma
HCT-116 colon = system: HCT-116 colon
NCI-H23 lung = system: NCI-H23 lung
UACC-257 melanoma = system: UACC-257 melanoma
CAKI-1 renal = system: CAKI-1 renal
SNB-19 CNS = system: SNB-19 CNS
SK-OV-3 ovarian = system: SK-OV-3 ovarian
NCI-H226 lung = system: NCI-H226 lung
HOP-92 NSCLC = system: HOP-92 NSCLC
COLO 205 colon = system: COLO 205 colon
MDA-MB-435 = system: MDA-MB-435
SK-MEL-28 melanoma = system: SK-MEL-28 melanoma
TK-10 renal = system: TK-10 renal
SK-MEL-5 melanoma = system: SK-MEL-5 melanoma
A498 renal = system: A498 renal
OVCAR-8 ovarian = system: OVCAR-8 ovarian
HOP-62 NSCLC = system: HOP-62 NSCLC
SN12C renal = system: SN12C renal
OVCAR-3 ovarian = system: OVCAR-3 ovarian

## C#C[C@]1(O)CC[C@H]2[C@@H]3CC=C4c5sc(Nc6cc(OC)ccc6OC)nc5CC[C@]4(C)[C@H]3CC[C@@]21C
SF-268 CNS
  GI50: 3.55 µM
  TGI: 33 µM
KM12 colon
  GI50: 2.33 µM
  TGI: 11 µM
UO-31 renal
  GI50: 1.41 µM
  TGI: 12.9 µM
T-47D breast
  GI50: 3.04 µM
  TGI: > 100 µM
K-562 leukemia
  GI50: 0.553 µM
  TGI: > 100 µM
MCF7 breast
  GI50: 0.454 µM
  TGI: 1.74 µM
HT29 colon
  GI50: 1.8 µM
  TGI: > 100 µM
EKVX NSCLC
  GI50: 2.86 µM
  TGI: 42.5 µM
CCRF-CEM leukemia
  GI50: 0.619 µM
  TGI: > 100 µM
HCC-2998 colon
  GI50: 4.11 µM
  TGI: 23.2 µM
IGROV1 ovarian
  GI50: 2.93 µM
  TGI: 25 µM
NCI/ADR-RES ovarian
  GI50: 3.11 µM
  TGI: > 100 µM
UACC-62 melanoma
  GI50: 1.56 µM
  TGI: 9.02 µM
NCI-H522 lung
  GI50: 3.9 µM
  TGI: 29.8 µM
U251 CNS
  GI50: 0.643 µM
  TGI: 13.3 µM
MALME-3M melanoma
  GI50: 1.69 µM
  TGI: 8.76 µM
SR leukemia
  GI50: 0.306 µM
  TGI: 24.8 µM
SK-MEL-2 melanoma
  GI50: 2.28 µM
  TGI: 42.1 µM
PC-3 prostate
  GI50: 0.627 µM
  TGI: 30 µM
786-0 renal
  GI50: 0.392 µM
  TGI: 5.08 µM
MOLT-4 leukemia
  GI50: 0.367 µM
  TGI: 16.2 µM
HL-60(TB) leukemia
  GI50: 0.646 µM
  TGI: 4.07 µM
MDA-MB-231 breast
  GI50: 2.36 µM
  TGI: > 100 µM
SF-539 CNS
  GI50: 0.449 µM
  TGI: 1.68 µM
DU-145 prostate
  GI50: 1.91 µM
  TGI: 7.47 µM
RPMI-8226 leukemia
  GI50: 0.193 µM
  TGI: 0.694 µM
NCI-H460 lung
  GI50: 2.16 µM
  TGI: 15.1 µM
SNB-75 CNS
  GI50: 0.386 µM
  TGI: 13.7 µM
ACHN renal
  GI50: 1.9 µM
  TGI: 16.5 µM
BT-549 breast
  GI50: 0.61 µM
  TGI: 7.03 µM
HS 578T breast
  GI50: 0.202 µM
  TGI: 0.597 µM
OVCAR-5 ovarian
  GI50: 4.14 µM
  TGI: 25.7 µM
A549 NSCLC
  GI50: 3.1 µM
  TGI: 95.7 µM
OVCAR-4 ovarian
  GI50: 4.46 µM
  TGI: > 100 µM
M14 melanoma
  GI50: 1.04 µM
  TGI: 4.08 µM
HCT-116 colon
  GI50: 1.12 µM
  TGI: 2.77 µM
NCI-H23 lung
  GI50: 2.49 µM
  TGI: 28.3 µM
UACC-257 melanoma
  GI50: 1.95 µM
  TGI: 9.18 µM
CAKI-1 renal
  GI50: 1.11 µM
  TGI: 4.68 µM
SNB-19 CNS
  GI50: 3.63 µM
  TGI: 24.3 µM
SK-OV-3 ovarian
  GI50: 1.08 µM
  TGI: 4.37 µM
NCI-H226 lung
  GI50: 3.04 µM
  TGI: 20.9 µM
HOP-92 NSCLC
  GI50: 4.66 µM
  TGI: 74.7 µM
COLO 205 colon
  GI50: 2.43 µM
  TGI: 7.83 µM
MDA-MB-435
  GI50: 2.79 µM
  TGI: 19.2 µM
SK-MEL-28 melanoma
  GI50: 0.406 µM
  TGI: 5.32 µM
TK-10 renal
  GI50: 4.15 µM
  TGI: 27.5 µM
SK-MEL-5 melanoma
  GI50: 2.3 µM
  TGI: 5.58 µM
A498 renal
  GI50: 0.429 µM
  TGI: 4.62 µM
OVCAR-8 ovarian
  GI50: 2.94 µM
  TGI: > 100 µM
HOP-62 NSCLC
  GI50: 1.96 µM
  TGI: 47.9 µM
SN12C renal
  GI50: 3.9 µM
  TGI: 32.7 µM
OVCAR-3 ovarian
  GI50: 2.39 µM
  TGI: 9.14 µM
